Among the data in patent publication US20170027172A1, “USE OF SUBSTITUTE OXO TETRAHYDROQUINOLINE SULFONAMIDES OR SALTS THEREOF FOR RAISING STRESS TOLERANCE OF PLANTS” (BAYER CROPSCIENCE AKTIENGESELLSCHAFT, priority 2014, published 2017) are ABI1 inhibition values, retold here.

For this test, the target named is T1, phosphatase ABI1 via the co-regulator RCAR11/PYR1 (Arabidopsis thaliana, UniProt O49686+P49597).
T1 sequence (O49686 1-191): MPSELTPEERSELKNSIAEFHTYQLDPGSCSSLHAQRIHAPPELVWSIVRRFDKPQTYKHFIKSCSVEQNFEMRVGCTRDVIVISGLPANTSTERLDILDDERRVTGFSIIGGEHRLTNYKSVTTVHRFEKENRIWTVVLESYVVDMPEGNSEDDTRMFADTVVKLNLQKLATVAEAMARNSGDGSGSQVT
T1 sequence (P49597 1-434): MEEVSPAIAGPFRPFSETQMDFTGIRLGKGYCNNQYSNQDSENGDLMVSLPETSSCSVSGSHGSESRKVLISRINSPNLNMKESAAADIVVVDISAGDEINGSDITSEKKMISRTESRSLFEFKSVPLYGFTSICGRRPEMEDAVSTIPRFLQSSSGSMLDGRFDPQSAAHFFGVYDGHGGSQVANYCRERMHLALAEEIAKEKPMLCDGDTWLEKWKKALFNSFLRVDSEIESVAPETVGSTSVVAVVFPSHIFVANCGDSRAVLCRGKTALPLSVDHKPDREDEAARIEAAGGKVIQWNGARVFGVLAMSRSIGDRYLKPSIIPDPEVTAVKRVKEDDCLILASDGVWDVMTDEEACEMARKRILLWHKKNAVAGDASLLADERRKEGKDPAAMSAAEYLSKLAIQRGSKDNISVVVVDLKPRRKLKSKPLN
Briefly: In vitro inhibition of the phosphatase ABI1 via the co-regulator RCAR11/PYR1, MUP dephosphorylation. Type of test: biochemical. Set-up: dose or concentration left out as unconfirmed. The conditions noted are these: in a solution of DMSO and water; fluorescence at 460 nm. From the text: Effects of the phytohormone abscisic acid (ABA) on the behavior of plants under abiotic stress and the mechanism of action of ABA are described in the literature (cf. Abrams et al., WO97/23441, Park et al. Science, 2009, 324, 1068; Grill et al. Science, 2009, 324, 1064; Tanokura et al. Biophysics, 2011, 7, 123; Schroeder et al. Plant J. 2010, 61, 290). Therefore, it is possible with the aid of a suitable in vitro test system to derive a correlation between the action of ABA and the stress response of a plant under abiotic stress. In the event of water deficiency (drought stress), plants form the phytohormone abscisic acid (ABA). This binds, along with a co-regulator (Regulatory Component of ABA-Receptor=RCAR according to Grill et al. Science, 2009, 324, 1064 or PYR/PYL according to Cutler et al. Science, 2009, 324, 1068), to a phosphatase (e.g. ABI1, a type 2C protein phosphatase, also abbreviated to PP2C) and inhibits its activity. As a result, a “downstream” kinase (e.g. SnRK2) is no longer dephosphorylated. This kinase, which is thus active, via phosphorylation of transcription factors (e.g. AREB/ABF, cf. Yoshida et al., 2010, 61, 672), switches on a genetic protection program to increase drought stress tolerance. The assay described hereinafter utilizes the inhibition of the phosphatase ABI1 via the co-regulator RCAR11/PYR1 aus Arabidopsis thaliana. For the determination of activity, the dephosphorylation of 4-methylumbelliferyl phosphate (MUP) was measured at 460 nm. The in vitro assay was conducted in Greiner 384-well PS microplates F-well, using two controls: a) 0.5% dimethyl sulfoxide (DMSO) and b) 5 μM abscisic acid (ABA). The assay described here was generally conducted with substance concentrations of the appropriate chemical test substances in a concentration range of 0.1 μM to 100 μM in a solution of DMSO and water. The substance solution thus obtained, if necessary, was stirred with esterase from porcine liver (EC 3.1.1.1) at room temperature for 3 h and centrifuged at 4000 rpm for 30 min. A total volume of 45 μl was introduced into each cavity of the microplate, having the following composition: • 1) 5 μl of substance solution, i.e. a) DMSO 5% or b) abscisic acid solution or c) the corresponding example compound of the general formula (I) dissolved in 5% DMSO. • 2) 20 μl of enzyme buffer mix, composed of a) 40% by vol. of enzyme buffer (10 mL contain equal proportions by volume of 500 mM Tris-HCl pH 8, 500 mM NaCl, 3.33 mM MnCl2, 40 mM dithiothreitol (DTT)), b) 4% by vol. of ABI1 dilution (protein stock solution was diluted so as to give, after addition, a final concentration in the assay of 0.15 μg ABI1/well), c) 4% by vol. of RCAR11 dilution (enzyme stock was diluted so as to give, on addition of the dilution to the enzyme buffer mix, a final concentration in the assay of 0.30 μg enzyme/well), d) 5% by vol. of Tween20 (1%), e) 47% by vol. H2O bi-dist. • 3) 20 μl of substrate mix, composed of a) 10% by vol. of 500 mM Tris-HCl pH8, b) 10% by vol. of 500 mM NaCl, c) 10% by vol. of 3.33 mM MnCl2, d) 5% by vol. of 25 mM MUP, 5% by vol. of Tween20 (1%), 60% by vol. of H2O bi-dist.
Enzyme buffer mix and substrate mix were made up 5 minutes prior to the addition and warmed to a temperature of 35° C. On completion of pipetting of all the solutions and on completion of mixing, the plate was incubated at 35° C. for 20 minutes. Finally, a relative fluorescence measurement was made at 35° C. with a BMG Labtech “POLARstar Optima” microplate reader using a 340/10 nm excitation filter and a 460 nm emission filter. The efficacy of the compounds of the general formula (I) is reported in the table which follows using abscisic acid […] as comparative substance (No. 37) according to the following classification: ++++ (inhibition≧90%), +++ (90%>inhibition≧70%), ++ (70%>inhibition≧50%), + (50%>inhibition≧30%). […]

For `O=C1CCc2cc(NS(=O)(=O)Cc3cccc(Br)c3)ccc2N1CC(F)(F)F` [A2-173], the ABI1 inhibition result is given as “+++ (90%>inhibition≧70%)”.
The entry for `CC1(C)CC(=O)N(CC#N)c2ccc(NS(=O)(=O)Cc3ccc(Cl)cc3)cc21` [B16-165] is “+++ (90%>inhibition≧70%)”; for `Cc1ccc(CS(=O)(=O)Nc2ccc3c(c2)CCC(=O)N3CC2CC2(Cl)Cl)cc1` (stereo not drawn) [A32-152] it is “++ (70%>inhibition≧50%)”.
To `N#Cc1ccc(CS(=O)(=O)Nc2ccc3c(c2)CCC(=O)N3CC(F)F)cc1` [A1-181] belongs “++++ (inhibition≧90%)”; to `N#Cc1cccc(CS(=O)(=O)Nc2ccc3c(c2)CCC(=O)N3CCC(F)(F)F)c1` [A7-182], “++ (70%>inhibition≧50%)”; to `COC(=O)CCN1C(=O)CCc2cc(NS(=O)(=O)Cc3ccc([N+](=O)[O-])cc3)ccc21` [A51-175], “+++ (90%>inhibition≧70%)”.
The entry for `Cc1ccc(CS(=O)(=O)Nc2ccc3c(c2)CCC(=O)N3CC#N)cc1` [A16-152] is “++ (70%>inhibition≧50%)”.
With `O=C1CCc2cc(NS(=O)(=O)Cc3ccc(Br)cc3)ccc2N1CC(F)F` [A1-172], the ABI1 inhibition entry is given as “++++ (inhibition≧90%)”.
As for `CC1=CC(=O)CC(C)(C)[C@@]1(O)/C=C/C(C)=C\C(=O)O` [abscisic acid, reference compound], the ABI1 inhibition entry is reported as “++++ (inhibition≧90%)”.
The entry for `COC(=O)CN1C(=O)CCc2cc(NS(=O)(=O)Cc3cccc(Cl)c3)ccc21` [A50-166] is “++ (70%>inhibition≧50%)”; for `O=C1CCc2cc(NS(=O)(=O)Cc3ccc(Cl)cc3)ccc2N1CC(F)F` [A1-165] it is “++++ (inhibition≧90%)”; for `O=C1CCc2cc(NS(=O)(=O)Cc3cccc(Br)c3)ccc2N1CC(F)F` [A1-173] it is “++ (70%>inhibition≧50%)”.
The entry for `O=C1CCc2cc(NS(=O)(=O)Cc3ccc(F)cc3)ccc2N1CC1CCC1` [A21-158] is “++++ (inhibition≧90%)”; for `CCOCCN1C(=O)CCc2cc(NS(=O)(=O)Cc3ccc(C#N)cc3)ccc21` [A39-181] it is “+++ (90%>inhibition≧70%)”.
The entry for `N#CCN1C(=O)CCc2cc(NS(=O)(=O)Cc3ccc(C(F)(F)F)cc3)ccc21` [A16-178] is “++ (70%>inhibition≧50%)”; for `CCc1ccc(CS(=O)(=O)Nc2ccc3c(c2)CCC(=O)N3CC2CCC2)cc1` [A21-325] it is “++++ (inhibition≧90%)”.
With `O=C1CCc2cc(NS(=O)(=O)Cc3ccc(Cl)cc3)ccc2N1CC1CCC1` [A21-165], the ABI1 inhibition result is reported as “++++ (inhibition≧90%)”.
The entry for `N#Cc1ccc(CS(=O)(=O)Nc2ccc3c(c2)CCC(=O)N3CC2CCC2)cc1` [A21-181, N-[1-(Cyclobutylmethyl)-2-oxo-1,2,3,4-tetrahydroquinolin-6-yl]-1-(4-cyanophenyl)methanesulfonamide] is “++++ (inhibition≧90%)”; for `Cc1ccc(CS(=O)(=O)Nc2ccc3c(c2)CCC(=O)N3CCC(F)(F)F)cc1` [A7-152] it is “++++ (inhibition≧90%)”.
Regarding `COCCN1C(=O)CCc2cc(NS(=O)(=O)Cc3ccc(C)cc3)ccc21` [A38-152, N-[1-(Methoxyethyl)-2-oxo-1,2,3,4-tetrahydroquinolin-6-yl]-1-(4-methylphenyl)methanesulfonamide], the ABI1 inhibition result is “++++ (inhibition≧90%)”.
To `Cc1ccc(CS(=O)(=O)Nc2ccc3c(c2)CCC(=O)N3CC2CCCC2)cc1` [A22-152] belongs “+++ (90%>inhibition≧70%)”; to `O=C1CCc2cc(NS(=O)(=O)Cc3ccc(Cl)cc3)ccc2N1CC(F)(F)C(F)(F)F` [A10-165], “++++ (inhibition≧90%)”.
The entry for `COC(=O)CCN1C(=O)CCc2cc(NS(=O)(=O)Cc3cccc(Br)c3)ccc21` [A51-173] is “++ (70%>inhibition≧50%)”.
To `O=C1CCc2cc(NS(=O)(=O)Cc3ccc(Cl)cc3)ccc2N1CC(F)(F)F` [A2-165] belongs “++++ (inhibition≧90%)”; to `Cc1ccc(CS(=O)(=O)Nc2ccc3c(c2)CCC(=O)N3CC(F)F)cc1` [A1-152], “++++ (inhibition≧90%)”.
On to `O=C1CCc2cc(NS(=O)(=O)Cc3ccccc3Cl)ccc2N1CC(F)(F)F` [A2-168], for which the ABI1 inhibition entry is reported as “++ (70%>inhibition≧50%)”.
To `COC(=O)CN1C(=O)CCc2cc(NS(=O)(=O)Cc3ccc(F)cc3)ccc21` [A50-158] belongs “+++ (90%>inhibition≧70%)”; to `O=C1CCc2cc(NS(=O)(=O)Cc3ccc(F)cc3)ccc2N1CC(F)(F)F` [A2-158], “++++ (inhibition≧90%)”.
For the compound `COC(=O)CN1C(=O)CCc2cc(NS(=O)(=O)Cc3ccc(Cl)cc3)ccc21` [A50-165], the ABI1 inhibition result is reported as “++++ (inhibition≧90%)”.
For the compound `CCOCCN1C(=O)CCc2cc(NS(=O)(=O)Cc3ccc(C)cc3)ccc21` [A39-152], the ABI1 inhibition entry is given as “++++ (inhibition≧90%)”.
The entry for `COC(=O)CN1C(=O)CCc2cc(NS(=O)(=O)Cc3ccc(C#N)cc3)ccc21` [A50-181] is “+++ (90%>inhibition≧70%)”.
To `O=C1CCc2cc(NS(=O)(=O)Cc3ccc([N+](=O)[O-])cc3)ccc2N1CC(F)(F)F` [A2-175] belongs “++++ (inhibition≧90%)”.
The entry for `COCCN1C(=O)CCc2cc(NS(=O)(=O)Cc3ccc(C(F)(F)F)cc3)ccc21` [A38-178] is “++++ (inhibition≧90%)”.
`Cc1ccc(CS(=O)(=O)Nc2ccc3c(c2)CCC(=O)N3CC(F)(F)F)cc1` [A2-152]: the ABI1 inhibition entry is “++++ (inhibition≧90%)”.
Take `COC(=O)CN1C(=O)CCc2cc(NS(=O)(=O)CCc3ccc(Cl)cc3)ccc21` [A50-291]: the ABI1 inhibition entry is “++ (70%>inhibition≧50%)”.
For `COC(=O)CN1C(=O)CCc2cc(NS(=O)(=O)Cc3ccccc3F)ccc21` [A50-161], the ABI1 inhibition result is listed as “+++ (90%>inhibition≧70%)”.
The entry for `Cc1cccc(CS(=O)(=O)Nc2ccc3c(c2)CCC(=O)N3CC(F)(F)F)c1` [A2-153] is “+++ (90%>inhibition≧70%)”.
On to `N#Cc1ccc(CS(=O)(=O)Nc2ccc3c(c2)CCC(=O)N3CC(F)(F)F)cc1` [A2-181], for which the ABI1 inhibition entry was “++++ (inhibition≧90%)”.
As to `O=C1CCc2cc(NS(=O)(=O)Cc3ccc(Cl)cc3)ccc2N1CC1CC1` [A19-165], the ABI1 inhibition entry is listed as “++++ (inhibition≧90%)”.
